Biological target: T1, D2 receptors (Homo sapiens, UniProt P14416)
T1 construct: expressed in transfected cells
Assay: GTPS scintillation proximity assay (GTPS-SPA), CHO_D2 cell membranes
Format: biochemical
Conditions: up to the highest concentration tested in the assay (3 μM)
Protocol: Functional potency of compounds of this invention can be measured by the following GTPS scintillation proximity assay (GTPS-SPA). Cells used in the study are Chinese Hamster Ovary (CHO) Cells.
All steps are performed at 4° C. Cell membranes are prepared as follows. Cell pellets are resuspended in 10 volumes of 50 mM HEPES, 1 mM EDTA pH 7.4, using KOH.
Cells are homogenised within a glass waring blender for 2 bursts of 15 secs in 200 mls of buffer (50 mM HEPES, 1 mM leupeptin, 25 μg/ml bacitracin, 1 mM EDTA, 1 mM PMSF, 2 μM Pepstatin A). (the latter 2 reagents added as fresh ×100 and ×500 stocks respectively in ethanol). […]
The final top concentration of test drug is 3 μM in the assay and 11 points serial dilution curves 1:4 in 100% DMSO are carried out using a Biomek FX. […] The final assay cocktail (45.5 μl) is incubated at room temperature to equilibrate for 3-6 hours before reading on a ViewLux™ (613/55 filter) luminescence imager 5 min/plate.
The effect of the test drug over the basal generates fpKi values of test drug are calculated from the IC50 generated by “antagonist format” experiment, using Cheng & Prusoff equation: fKi=IC50/1+([A]/EC50) where: [A] is the concentration of the agonist Quinelorane in the assay and EC50 is the Quinelorane EC50 value obtained in the same experiment. fpKi is defined as −log fKi. […]

T1 sequence (P14416 whole entry): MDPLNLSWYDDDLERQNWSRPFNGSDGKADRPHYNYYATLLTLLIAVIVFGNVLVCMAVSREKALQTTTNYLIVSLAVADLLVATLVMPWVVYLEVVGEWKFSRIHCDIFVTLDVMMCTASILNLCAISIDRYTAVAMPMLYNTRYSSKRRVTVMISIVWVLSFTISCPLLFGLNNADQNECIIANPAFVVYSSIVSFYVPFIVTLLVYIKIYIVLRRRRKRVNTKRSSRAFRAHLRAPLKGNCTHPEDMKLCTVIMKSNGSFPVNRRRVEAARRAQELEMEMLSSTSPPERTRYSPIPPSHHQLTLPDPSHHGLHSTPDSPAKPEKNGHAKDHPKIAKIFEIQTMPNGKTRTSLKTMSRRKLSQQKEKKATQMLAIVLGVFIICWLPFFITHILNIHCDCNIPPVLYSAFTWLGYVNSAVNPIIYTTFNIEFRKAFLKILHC

Cl.N#Cc1cccn(CCCCN2C[C@@H]3C[C@]3(c3ccc(C(F)(F)F)cc3)C2)c1=O [Example E9, 2-oxo-1-(4-{(1S,5R)-1-[4-(trifluoromethyl)phenyl]-3-azabicyclo[3.1.0]hex-3-yl}butyl)-1,2-dihydro-3-pyridinecarbonitrile hydrochloride]
activity in the D2 GTPS-SPA assay: no activity

COc1cccn(CCCCN2C[C@@H]3C[C@]3(c3ccc(C(F)(F)F)cc3)C2)c1=O.Cl [Example E8, 3-(methyloxy)-1-(4-{(1S,5R)-1-[4-(trifluoromethyl)phenyl]-3-azabicyclo[3.1.0]hex-3-yl}butyl)-2(1H)-pyridinone hydrochloride]
activity in the D2 GTPS-SPA assay: no activity
